Results on 16 molecules are retold here after ChEMBL document CHEMBL5108010, “Structure-activity relationship studies on divalent naphthalene diimide G quadruplex ligands with anticancer and antiparasitic activity” (Bioorg Med Chem, 2022).

A short description of data set [1]: Binding affinity to hairpin duplex DNA F10T (unknown origin) assessed as stabilization by measuring change in melting temperature at 10 uM in potassium buffer by FRET melting assay.
Data set [2] can be described thus: Selectivity index, ratio of IC50 for cytotoxicity against human MRC5 cells to IC50 for cytotoxicity against human HeLa cells. The format is toxicity, cell-based. The following applies: MRC5 cells versus HeLa cells, read-out: Ratio IC50.
Data set [3] has as its system Leishmania major. In words: Antileishmanial activity against Leishmania major (MHOM/IL/80/Friedlin) promastigotes assessed as inhibition of parasite growth incubated for 72 hrs by MTT assay. The following applies: Leishmania major, MHOM/IL/80/Friedlin, 72 h. It is filed as functional, organism-based. (Tetrazolium assays rely on reduction of a dye to a coloured formazan, in cell work by metabolically active cells.)

Data set [4] deals with Quadruplex DNA. Put plainly: Binding affinity to Trypanosoma brucei G-quadruplex telomeric DNA FEBR1T (5'-duplex GGG TTAGGG TTAGGG TTAGGG-3') assessed as stabilization by measuring change in melting temperature at 10 uM in potassium buffer by FRET melting assay. It is filed as nucleic-acid assay.
The subject of data set [5] is Quadruplex DNA. In words: Binding affinity to G-quadruplex telomeric DNA FMycT (5'-duplex GGG TTAGGG TTAGGG TTAGGG-3') (unknown origin) assessed as stabilization by measuring change in melting temperature at 10 uM in potassium buffer by FRET melting assay. It is filed as nucleic-acid assay.
Data set [6] in a line: Selectivity index, ratio of IC50 for cytotoxicity against human MRC5 cells to IC50 for antileishmanial activity against Leishmania major (MHOM/IL/80/Friedlin) promastigotes. The note with it: read-out: Ratio IC50. The format is toxicity, cell-based.
A short description of data set [7]: Cytotoxicity against human MRC5 cells assessed as inhibition of cell proliferation incubated for 72 hrs by alamar blue assay. The format is toxicity, cell-based. The following applies: human, MRC5 cells. For orientation: Resazurin is reduced to fluorescent resorufin, in cell work by metabolically active cells.
Data set [8] has as its system Trypanosoma brucei. In words: Antitrypanosomal activity against Trypanosoma brucei bloodstream form assessed as inhibition of parasite growth incubated for 72 hrs by alamar blue assay. It is filed as functional, organism-based. The note with it: Trypanosoma brucei, 72 h.
The test system of data set [9] is Quadruplex DNA. Put plainly: Binding affinity to G-quadruplex telomeric DNA F21T (5'-duplex GGG TTAGGG TTAGGG TTAGGG-3') (unknown origin) assessed as stabilization by measuring change in melting temperature at 10 uM in potassium buffer by FRET melting assay. The format is nucleic-acid assay.
The nature of data set [10]: Selectivity index, ratio of IC50 for cytotoxicity against human MRC5 cells to IC50 for antitrypanosomal activity against Trypanosoma brucei bloodstream form. The format is toxicity, cell-based. The note with it: MRC5 cells versus Trypanosoma brucei bloodstream form, read-out: Ratio IC50.
Data set [11] deals with Quadruplex DNA. Put plainly: Binding affinity to G-quadruplex telomeric DNA F21T (5'-duplex GGG TTAGGG TTAGGG TTAGGG-3') (unknown origin) assessed as stabilization by measuring change in melting temperature at 10 uM in sodium buffer by FRET melting assay. The format is nucleic-acid assay.
For data set [12], the system named is HeLa. In words: Cytotoxicity against human HeLa cells assessed as inhibition of cell proliferation incubated for 72 hrs by alamar blue assay. It is filed as functional, cell-based. The following applies: Homo sapiens, HeLa, 72 h.

Each structure is given as a SMILES string.

As usually defined, the ΔTm is the shift of the melting midpoint relative to a reference. As a reminder, the IC50 is the point on the concentration scale where inhibition reaches its midpoint.

As to `CC(CN1C(=O)c2ccc3c4c(ccc(c24)C1=O)C(=O)N(CC(C)N1CCN(C)CC1)C3=O)N1CCN(C)CC1` (stereo unspecified), the ΔTm in data set [1] worked out at 1.7 °C; in data set [4], 17.5 °C; in data set [5], 13.2 °C; in data set [9] it was 20.5 °C; in [11], 9.2 °C. For the same molecule, the selectivity ratio in data set [2] is 0.83; in data set [6] it was 0.17; in data set [10], 8.2. Moreover, the half-maximal inhibitory concentration (IC50) in [3] was 8.08 µM; in data set [8], 170 nM; in data set [12], 1.68 µM. Moreover, the IC50 at 72 h in [7] amounted to 1.4 µM.

Turning to `CC(CCN1C(=O)c2ccc3c4c(ccc(c24)C1=O)C(=O)N(CCC(C)N1CCN(C)CC1)C3=O)N1CCN(C)CC1` (stereo unspecified), the ΔTm turned out to be 4.5 °C in data set [1]; 24.8 °C in data set [4]; 22 °C in data set [5]; 28.5 °C in data set [9]; 18.8 °C in data set [11]. The selectivity ratio in data set [2] was determined as 3.54; in data set [6], 5.17; in data set [10] it was 9.5. Also, the IC50 in data set [3] was determined as 0.24 µM; in data set [8], 130 nM; in data set [12], 0.35 µM. Further, the IC50 at 72 h in [7] amounted to 1.24 µM.

Consider `O=C1c2ccc3c4c(ccc(c24)C(=O)N1CC(c1ccccn1)N1CCOCC1)C(=O)N(CC(c1ccccn1)N1CCOCC1)C3=O` (stereo unspecified), for which the ΔTm is 0.3 °C in data set [1]; 0.7 °C in [4]; 0.1 °C in [5]; 0.1 °C in data set [9]; 0.9 °C in [11]. Moreover, the selectivity ratio was 0.85 in data set [2], under 0.83 in [6] and 1.6 in [10]. Moreover, the IC50 was over 100 µM in data set [3], 51700 nM in data set [8] and 96.9 µM in data set [12]. Besides, the IC50 at 72 h in data set [7] came out at 83.1 µM.

For `CN1CCN(C(C)(C)CN2C(=O)c3ccc4c5c(ccc(c35)C2=O)C(=O)N(CC(C)(C)N2CCN(C)CC2)C4=O)CC1`, the ΔTm in data set [1] is 0.2 °C; in data set [4], 4 °C; in data set [5], 14.8 °C; in [9] it was 20.7 °C; in data set [11], 10.2 °C. Also, the selectivity ratio in data set [2] was 0.76; in data set [6], 0.14; in data set [10] it was 3.5. For the same molecule, the IC50 is 24.6 µM in [3], 960 nM in data set [8] and 4.47 µM in [12]. Besides, in data set [7], the IC50 at 72 h was 3.38 µM.

Consider `C[n+]1cccc(N2C(=O)c3ccc4c5c(ccc(c35)C2=O)C(=O)N(c2ccc[n+](C)c2)C4=O)c1`, for which the ΔTm in [1] is 0 °C; in data set [4], 0.7 °C; in data set [5], -1.6 °C; in data set [9] it was 0.5 °C; in data set [11], 1.3 °C. The IC50 in data set [3] is over 63.9 µM; in data set [8], 44100 nM; in [12] it was over 63.9 µM. For the same molecule, the values for the selectivity ratio in [6] and in data set [10] were under 0.28 and 0.41, respectively. In [7], the IC50 at 72 h stood at 18.2 µM.

For the molecule `O=C1c2ccc3c4c(ccc(c24)C(=O)N1c1ccc(N2CCOCC2)cc1)C(=O)N(c1ccc(N2CCOCC2)cc1)C3=O`, the selectivity ratio in data set [2] turned out to be 1.47; in [6] it was 1.5; in data set [10], 4.88. The values for the IC50 in data set [3], in data set [8] and in data set [12] were 45.4 µM, 14000 nM and 46.4 µM, respectively. Also, the IC50 at 72 h in [7] came out at 68.4 µM.

With `C[n+]1cccc2c(N3C(=O)c4ccc5c6c(ccc(c46)C3=O)C(=O)N(c3cccc4c3ccc[n+]4C)C5=O)cccc21`, the ΔTm was determined as 0.5 °C in data set [1]; 3 °C in [4]; 0.6 °C in [5]; 2 °C in data set [9]; 1.4 °C in data set [11]. Besides, the selectivity ratio in [2] came out at 0.011; in data set [6], 0.15; in data set [10] it was 0.79. Also, the IC50 in data set [3] came out at 1.86 µM; in [8], 350 nM; in [12], 24.2 µM. Further, the IC50 at 72 h in [7] worked out at 0.28 µM.

Consider `CN1CCN(CCN2C(=O)c3ccc4c5c(ccc(c35)C2=O)C(=O)N(CCN2CCN(C)CC2)C4=O)CC1`, for which the ΔTm in data set [1] was found to be 2.7 °C; in [4] it was 12 °C; in [5], 16 °C; in data set [9], 21.5 °C; in data set [11] it was 11.3 °C. The selectivity ratio in data set [2] worked out at 6.4; in [6] it was 4.04; in data set [10], 14.2. The IC50 in data set [3] came out at 1.68 µM; in [8] it was 480 nM; in data set [12], 1.06 µM. Besides, in [7], the IC50 at 72 h came out at 6.78 µM.

`O=C1c2ccc3c4c(ccc(c24)C(=O)N1CCCN1CCOCC1)C(=O)N(CCCN1CCOCC1)C3=O`: the ΔTm in [1] was 1 °C; in data set [4], 3.1 °C; in data set [5], 2 °C; in data set [9], 7 °C; in data set [11] it was -7 °C. The selectivity ratio in [2] worked out at 3.81; in data set [6] it was 2.75; in data set [10], 20.8. Also, the IC50 in [3] worked out at 4.32 µM; in data set [8], 570 nM; in data set [12] it was 5.83 µM. Further, the IC50 at 72 h in [7] came to 11.9 µM.

For `C[n+]1cc(N2C(=O)c3ccc4c5c(ccc(c35)C2=O)C(=O)N(c2cc3ccccc3[n+](C)c2)C4=O)cc2ccccc21`, the ΔTm was 0.1 °C in [1]; -0.9 °C in data set [4]; 1.2 °C in [5]; 0.3 °C in [9]; 0.4 °C in data set [11]. In addition, the selectivity ratio in data set [2] amounted to 0.053; in data set [6], 0.065; in data set [10] it was 0.17. The figures for the IC50 in [3], in data set [8] and in data set [12] were 52.1 µM, 19700 nM and 64.8 µM, respectively. Besides, in [7], the IC50 at 72 h came out at 3.41 µM.

With `O=C1c2ccc3c4c(ccc(c24)C(=O)N1c1ccccc1N1CCOCC1)C(=O)N(c1ccccc1N1CCOCC1)C3=O`, the selectivity ratio in [2] came out at 2.34; in [6], 0.8; in data set [10] it was 41.9. Moreover, the IC50 in data set [3] came out at 9.04 µM; in [8], 170 nM; in data set [12], 3.09 µM. Also, in data set [7], the IC50 at 72 h amounted to 7.25 µM.

Consider `CN1CCN(CCCN2C(=O)c3ccc4c5c(ccc(c35)C2=O)C(=O)N(CCCN2CCN(C)CC2)C4=O)CC1`, for which the ΔTm in [1] turned out to be 3 °C; in data set [4] it was 11 °C; in data set [5], 13 °C; in [9], 20 °C; in data set [11], 2 °C. Moreover, the IC50 in [3] was 0.47 µM; in [8], 610 nM; in [12] it was 0.41 µM. The IC50 at 72 h in data set [7] turned out to be 3.9 µM.

In the case of `CN1CCN(c2cccc(N3C(=O)c4ccc5c6c(ccc(c46)C3=O)C(=O)N(c3cccc(N4CCN(C)CC4)c3)C5=O)c2)CC1`, the ΔTm in data set [1] is 0.1 °C; in data set [4], 4.6 °C; in [5] it was 8 °C; in [9], 6.4 °C; in data set [11], 5.8 °C. The selectivity ratio in data set [2] stood at 3.09; in data set [6] it was 4.41; in [10], 7.91. Moreover, the IC50 in data set [3] is 0.33 µM; in data set [8], 180 nM; in data set [12] it was 0.47 µM. For the same molecule, in [7], the IC50 at 72 h was 1.48 µM.

Regarding `CN1CCN(CC2(CN3C(=O)c4ccc5c6c(ccc(c46)C3=O)C(=O)N(CC3(CN4CCN(C)CC4)CC3)C5=O)CC2)CC1`, the ΔTm was 0.5 °C in data set [1]; 15.5 °C in data set [4]; 15 °C in [5]; 18.5 °C in data set [9]; 7.7 °C in [11]. For the same molecule, the selectivity ratio in [2] came out at 0.85; in data set [6] it was 0.12; in [10], 3.6. Further, the IC50 in data set [3] came to 12.7 µM; in [8], 420 nM; in data set [12] it was 1.77 µM. In addition, the IC50 at 72 h in data set [7] worked out at 1.51 µM.

Take `C[n+]1cccc2cc(N3C(=O)c4ccc5c6c(ccc(c46)C3=O)C(=O)N(c3ccc4c(ccc[n+]4C)c3)C5=O)ccc21`: the ΔTm in data set [1] came to 1.4 °C; in data set [4] it was 2.5 °C; in data set [5], 11 °C; in data set [9], 4.6 °C; in data set [11], 3.5 °C. For the same molecule, the selectivity ratio in [2] came out at 0.031; in [6] it was 0.068; in data set [10], 0.3. The results for the IC50 in [3], in data set [8] and in data set [12] were 16.8 µM, 3710 nM and 37 µM, respectively. In data set [7], the IC50 at 72 h is 1.15 µM.

Regarding `C[n+]1ccc(N2C(=O)c3ccc4c5c(ccc(c35)C2=O)C(=O)N(c2cc[n+](C)cc2)C4=O)cc1`, the ΔTm in [1] is -0.2 °C; in data set [4], -0.5 °C; in data set [5], -3.5 °C; in data set [9], -0.4 °C; in data set [11], 0 °C. Besides, the IC50 was over 63.9 µM in data set [3], 48700 nM in [8] and over 63.9 µM in data set [12]. Besides, the IC50 at 72 h in data set [7] was over 63.9 µM. The selectivity ratio in data set [10] is over 1.31.
